Laboratory results reported in patent US12685735B2 (Foghorn Therapeutics Inc., priority 2020, dated 2026).

Legend:
[1] = target: BRM (Homo sapiens, UniProt P51531); test: ATPase catalytic activity assay of BRM (ADP-Glo); assay type: biochemical; details: for IC50: read-out: BRM IC50 (μM)*
In short: (§1)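 Two room-temperature incubations follow the reaction: 40 min to eliminate unused ATP, then 60 min to turn ADP into ATP driving luciferase light output. Activity is read as luminescence proportional to ADP formed.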

[2] = target: BRG-1 (Homo sapiens, UniProt P51532); test: ATPase catalytic activity assay of BRG-1 (ADP-Glo); assay type: biochemical; details: ATPase catalytic activity, ADP-Glo; for IC50: read-out: BRG1 IC50 (μM)*; for Emax: read-out: BRG1 Max % Inhibition
Chain of BRG-1 (P51532 whole entry): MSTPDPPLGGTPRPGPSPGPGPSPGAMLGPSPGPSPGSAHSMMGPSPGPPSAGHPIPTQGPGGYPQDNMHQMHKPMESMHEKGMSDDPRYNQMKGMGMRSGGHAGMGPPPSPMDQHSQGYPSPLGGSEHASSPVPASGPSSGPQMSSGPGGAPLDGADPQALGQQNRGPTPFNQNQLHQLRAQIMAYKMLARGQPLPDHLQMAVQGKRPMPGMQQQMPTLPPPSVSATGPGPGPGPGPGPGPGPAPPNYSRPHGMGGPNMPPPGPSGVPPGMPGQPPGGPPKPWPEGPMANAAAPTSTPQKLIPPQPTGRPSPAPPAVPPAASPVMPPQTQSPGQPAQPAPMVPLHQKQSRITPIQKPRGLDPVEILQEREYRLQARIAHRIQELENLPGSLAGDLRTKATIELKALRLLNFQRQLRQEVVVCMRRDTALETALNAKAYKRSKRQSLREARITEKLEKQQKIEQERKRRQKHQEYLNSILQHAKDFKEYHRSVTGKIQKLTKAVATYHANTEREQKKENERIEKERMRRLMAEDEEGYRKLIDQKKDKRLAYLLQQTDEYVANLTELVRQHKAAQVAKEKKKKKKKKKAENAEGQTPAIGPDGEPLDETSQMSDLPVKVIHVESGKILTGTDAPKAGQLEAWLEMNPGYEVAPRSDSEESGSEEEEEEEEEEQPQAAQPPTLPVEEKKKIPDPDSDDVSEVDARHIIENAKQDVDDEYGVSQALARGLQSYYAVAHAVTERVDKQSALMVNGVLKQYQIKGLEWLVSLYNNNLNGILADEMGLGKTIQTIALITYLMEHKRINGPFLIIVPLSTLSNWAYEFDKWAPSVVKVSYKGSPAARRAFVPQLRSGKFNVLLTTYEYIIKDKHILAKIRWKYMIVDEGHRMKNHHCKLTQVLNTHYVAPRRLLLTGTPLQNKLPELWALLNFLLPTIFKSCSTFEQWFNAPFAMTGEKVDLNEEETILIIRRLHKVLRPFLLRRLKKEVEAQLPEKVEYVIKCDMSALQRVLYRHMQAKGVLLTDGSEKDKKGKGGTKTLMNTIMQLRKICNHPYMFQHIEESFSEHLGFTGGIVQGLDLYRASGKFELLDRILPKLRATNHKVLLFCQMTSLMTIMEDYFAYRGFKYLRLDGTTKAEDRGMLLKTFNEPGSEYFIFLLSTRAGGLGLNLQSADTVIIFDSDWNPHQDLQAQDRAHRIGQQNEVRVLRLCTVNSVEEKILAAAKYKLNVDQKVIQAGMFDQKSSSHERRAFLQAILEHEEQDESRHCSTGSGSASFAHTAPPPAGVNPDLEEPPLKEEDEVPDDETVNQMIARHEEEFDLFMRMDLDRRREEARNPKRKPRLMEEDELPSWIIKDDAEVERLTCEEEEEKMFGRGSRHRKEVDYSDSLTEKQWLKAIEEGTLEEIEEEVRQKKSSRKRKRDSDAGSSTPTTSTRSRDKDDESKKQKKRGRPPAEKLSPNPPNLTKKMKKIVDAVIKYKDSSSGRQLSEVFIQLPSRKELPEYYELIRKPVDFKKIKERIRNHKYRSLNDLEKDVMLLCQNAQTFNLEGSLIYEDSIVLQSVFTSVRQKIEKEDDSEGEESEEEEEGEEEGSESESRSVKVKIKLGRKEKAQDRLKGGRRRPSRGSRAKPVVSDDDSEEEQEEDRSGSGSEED
In short: as §1

Chain of BRM (P51531 whole entry): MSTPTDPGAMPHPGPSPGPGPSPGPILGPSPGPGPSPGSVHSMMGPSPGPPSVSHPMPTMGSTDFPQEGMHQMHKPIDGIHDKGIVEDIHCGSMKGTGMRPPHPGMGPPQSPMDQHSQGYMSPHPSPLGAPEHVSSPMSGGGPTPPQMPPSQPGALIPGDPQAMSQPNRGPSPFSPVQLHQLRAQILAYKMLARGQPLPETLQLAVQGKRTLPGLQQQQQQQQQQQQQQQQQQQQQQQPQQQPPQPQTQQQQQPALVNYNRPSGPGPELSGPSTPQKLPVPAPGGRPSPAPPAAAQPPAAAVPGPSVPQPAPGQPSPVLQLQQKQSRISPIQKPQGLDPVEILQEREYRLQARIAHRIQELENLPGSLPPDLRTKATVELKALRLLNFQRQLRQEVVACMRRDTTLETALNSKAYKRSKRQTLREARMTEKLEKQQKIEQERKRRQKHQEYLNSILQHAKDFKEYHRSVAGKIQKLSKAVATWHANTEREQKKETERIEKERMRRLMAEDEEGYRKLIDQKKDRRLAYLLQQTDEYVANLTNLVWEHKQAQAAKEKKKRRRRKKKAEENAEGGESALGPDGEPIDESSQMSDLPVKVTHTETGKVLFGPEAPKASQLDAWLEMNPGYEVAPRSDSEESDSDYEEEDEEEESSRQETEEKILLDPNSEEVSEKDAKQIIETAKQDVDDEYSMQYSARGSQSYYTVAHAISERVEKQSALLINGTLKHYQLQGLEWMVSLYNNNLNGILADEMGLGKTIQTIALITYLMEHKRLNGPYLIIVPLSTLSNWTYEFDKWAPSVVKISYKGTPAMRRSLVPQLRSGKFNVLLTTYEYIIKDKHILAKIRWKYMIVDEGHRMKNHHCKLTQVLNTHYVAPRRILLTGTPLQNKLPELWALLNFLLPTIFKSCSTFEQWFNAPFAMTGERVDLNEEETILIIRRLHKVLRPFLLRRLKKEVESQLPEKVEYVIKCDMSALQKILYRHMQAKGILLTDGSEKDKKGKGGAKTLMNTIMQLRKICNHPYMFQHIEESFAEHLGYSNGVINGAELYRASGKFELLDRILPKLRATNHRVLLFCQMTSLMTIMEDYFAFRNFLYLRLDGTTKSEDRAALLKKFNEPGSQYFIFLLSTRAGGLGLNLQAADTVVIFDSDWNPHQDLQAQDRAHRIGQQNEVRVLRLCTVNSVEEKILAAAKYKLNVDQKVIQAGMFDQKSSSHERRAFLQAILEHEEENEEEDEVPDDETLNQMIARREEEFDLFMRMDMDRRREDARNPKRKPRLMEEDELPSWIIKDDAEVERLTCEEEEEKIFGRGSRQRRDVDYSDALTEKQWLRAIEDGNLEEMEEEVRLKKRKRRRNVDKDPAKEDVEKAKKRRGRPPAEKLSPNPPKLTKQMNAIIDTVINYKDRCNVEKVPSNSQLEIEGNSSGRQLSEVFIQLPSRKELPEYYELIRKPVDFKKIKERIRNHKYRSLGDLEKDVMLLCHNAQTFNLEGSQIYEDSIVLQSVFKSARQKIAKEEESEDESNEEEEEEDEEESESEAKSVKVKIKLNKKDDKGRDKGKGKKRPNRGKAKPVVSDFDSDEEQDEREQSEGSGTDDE

Row | BRM Max % Inhibition [1] [%] | IC50 [1] [µM] | IC50 [2] [µM] | Emax [2] [%] | Compound
1 | >90 | 0.1 to 1 | 1 to 5 | > 70 | CC(=O)N(C)c1cc(-c2cccc(-c3csc(NC(=O)CNC(=O)c4cccc(C(C)(C)CN)c4)n3)c2)ccn1 [Compound 56, 3-(1-amino-2-methylpropan-2-yl)-N-(2-((4-(3-(2-(N-methylacetamido)pyridin-4-yl)phenyl)thiazol-2-yl)amino)-2-oxoethyl)benzamide]
2 | >95 | < 0.1 | 0.1 to 1 | > 80 | CNc1cc(-c2cccc(-c3csc(NC(=O)CNC(=O)c4cccc(C(C)(C)CN)c4)n3)c2)ccn1 [Compound 57, 3-(1-amino-2-methylpropan-2-yl)-N-(2-((4-(3-(2-(methylamino)pyridin-4-yl)phenyl)thiazol-2-yl)amino)-2-oxoethyl)benzamide]
3 | >80 | 0.1 to 1 | 1 to 5 | > 60 | CC(C)(CN)c1cccc(C(=O)NCC(=O)Nc2nc(-c3cccc(-c4ccnc(C(F)(F)F)c4)c3)cs2)c1 [Compound 58, 3-(1-amino-2-methylpropan-2-yl)-N-(2-oxo-2-((4-(3-(2-(trifluoromethyl)pyridin-4-yl)phenyl)thiazol-2-yl)amino)ethyl)benzamide]
4 | >95 | < 0.1 | 0.1 to 1 | > 80 | CC(C)(CN)c1cccc(C(=O)NCC(=O)Nc2nc(-c3cccc(-c4ccnc(N)c4)c3)cs2)c1 [Compound 59, 3-(1-amino-2-methylpropan-2-yl)-N-(2-((4-(3-(2-aminopyridin-4-yl)phenyl)thiazol-2-yl)amino)-2-oxoethyl)benzamide]
5 | >95 | < 0.1 | 0.1 to 1 | > 80 | CC(C)(CN)c1cccc(C(=O)NCC(=O)Nc2nc(-c3cccc(-c4ccnc(CO)c4)c3)cs2)c1 [Compound 60, 3-(1-amino-2-methylpropan-2-yl)-N-(2-((4-(3-(2-(hydroxymethyl)pyridin-4-yl)phenyl)thiazol-2-yl)amino)-2-oxoethyl)benzamide]
6 | >90 | 0.1 to 1 | 1 to 5 | > 60 | CN(C)Cc1cc(-c2cccc(-c3csc(NC(=O)CNC(=O)c4cccc(C(C)(C)CN)c4)n3)c2)ccn1 [Compound 61, 3-(1-amino-2-methylpropan-2-yl)-N-(2-((4-(3-(2-((dimethylamino)methyl)pyridin-4-yl)phenyl)thiazol-2-yl)amino)-2-oxoethyl)benzamide]
7 | >95 | 0.1 to 1 | 1 to 5 | > 80 | CC(C)(CN)c1cccc(C(=O)NCC(=O)Nc2nc(-c3cccc(-c4ccncc4)c3)cs2)c1 [Compound 64, 3-(1-amino-2-methylpropan-2-yl)-N-(2-oxo-2-((4-(3-(pyridin-4-yl)phenyl)thiazol-2-yl)amino)ethyl)benzamide]
8 | >95 | < 0.1 | 0.1 to 1 | > 90 | Cc1cc(-c2cccc(-c3csc(NC(=O)CNC(=O)c4cccc(C(C)(C)CN)c4)n3)c2)cc(C)n1 [Compound 66, 3-(1-amino-2-methylpropan-2-yl)-N-(2-((4-(3-(2,6-dimethylpyridin-4-yl)phenyl)thiazol-2-yl)amino)-2-oxoethyl)benzamide]
9 | >70 | 0.1 to 1 | > 5 | > 30 | Cn1ccc(-c2cccc(-c3csc(NC(=O)CNC(=O)c4cccc(C(C)(C)CN)c4)n3)c2)n1 [Compound 69, 3-(1-amino-2-methylpropan-2-yl)-N-(2-((4-(3-(1-methyl-1H-pyrazol-3-yl)phenyl)thiazol-2-yl)amino)-2-oxoethyl)benzamide]

More lines, now with the values behind:

Row | Compound | BRM Max % Inhibition [1] [%] | IC50 [1] [µM] | IC50 [2] [µM] | Emax [2] [%]
10 | CC(C)(CN)c1cccc(C(=O)NCC(=O)Nc2nc(-c3cccc(CO[C@H]4CC[C@H](O)CC4)c3)cs2)c1 [Compound 62, 3-(1-amino-2-methylpropan-2-yl)-N-(2-((4-(3-((((1R,4R)-4-hydroxycyclohexyl)oxy)methyl)phenyl)thiazol-2-yl)amino)-2-oxoethyl)benzamide] | >80 | 1 to 5 | > 5 | > 40
11 | Cc1cc(C(=O)NCC(=O)Nc2nc(-c3cccc(-c4ccncc4)c3)cs2)cc(C(C)(C)CN)c1 [Compound 63, 3-(1-amino-2-methylpropan-2-yl)-5-methyl-N-(2-oxo-2-((4-(3-(pyridin-4-yl)phenyl)thiazol-2-yl)amino)ethyl)benzamide] | >80 | 1 to 5 | > 5 | > 60
12 | C[C@H](NC(=O)c1cccc(C(C)(C)CN)c1)C(=O)Nc1nc(-c2cccc(-c3ccncc3)c2)cs1 [Compound 65, (S)-3-(1-amino-2-methylpropan-2-yl)-N-(1-oxo-1-((4-(3-(pyridin-4-yl)phenyl)thiazol-2-yl)amino)propan-2-yl)benzamide] | >90 | 0.1 to 1 | 0.1 to 1 | > 95
13 | Cn1ccc2ccc(-c3csc(NC(=O)CNC(=O)c4cccc(C(C)(C)CN)c4)n3)cc2c1=O [Compound 67, 3-(1-amino-2-methylpropan-2-yl)-N-(2-((4-(2-methyl-1-oxo-1,2-dihydroisoquinolin-7-yl)thiazol-2-yl)amino)-2-oxoethyl)benzamide] | >70 | 1 to 5 | 1 to 5 | > 40
14 | COC[C@H](NC(=O)c1cccc(C(C)(C)CN)c1)C(=O)Nc1nc(-c2cccc(-c3ccnc(C)c3)c2)cs1 [Compound 68, (S)-3-(1-amino-2-methylpropan-2-yl)-N-(3-methoxy-1-((4-(3-(2-methylpyridin-4-yl)phenyl)thiazol-2-yl)amino)-1-oxopropan-2-yl)benzamide] | >95 | 0.1 to 1 | 0.1 to 1 | > 90
15 | Cc1ccc(C(=O)NCC(=O)Nc2nc(-c3cccc(-c4ccn(C)n4)c3)cs2)cc1C(C)(C)CN [Compound 70, 3-(1-amino-2-methylpropan-2-yl)-4-methyl-N-(2-((4-(3-(1-methyl-1H-pyrazol-3-yl)phenyl)thiazol-2-yl)amino)-2-oxoethyl)benzamide] | >95 | 0.1 to 1 | > 5 | > 50
16 | CCc1ccc(C(=O)NCC(=O)Nc2nc(-c3cccc(-c4ccn(C)n4)c3)cs2)cc1C(C)(C)CN [Compound 71, 3-(1-amino-2-methylpropan-2-yl)-4-ethyl-N-(2-((4-(3-(1-methyl-1H-pyrazol-3-yl)phenyl)thiazol-2-yl)amino)-2-oxoethyl)benzamide] | >70 | 1 to 5 | > 5 | > 30
17 | NCC1(c2cccc(C(=O)NCC(=O)Nc3nc(-c4cccc(-c5ccncc5)c4)cs3)c2)CC1 [Compound 72, 3-(1-(aminomethyl)cyclopropyl)-N-(2-oxo-2-((4-(3-(pyridin-4-yl)phenyl)thiazol-2-yl)amino)ethyl)benzamide] | >80 | 0.1 to 1 | > 5 | > 50
18 | CC(C)(CO)c1cccc(C(=O)NCC(=O)Nc2nc(-c3cccc(-c4ccncc4)c3)cs2)c1 [Compound 73, 3-(1-hydroxy-2-methylpropan-2-yl)-N-(2-oxo-2-((4-(3-(pyridin-4-yl)phenyl)thiazol-2-yl)amino)ethyl)benzamide] | >95 | < 0.1 | 0.1 to 1 | > 80
19 | Cc1cc(C(=O)NCC(=O)Nc2nc(-c3cccc(-c4ccncc4)c3)cs2)cc(C(C)(C)C#N)c1C [Compound 75, 3-(2-cyanopropan-2-yl)-4,5-dimethyl-N-(2-oxo-2-((4-(3-(pyridin-4-yl)phenyl)thiazol-2-yl)amino)ethyl)benzamide] | >80 | 0.1 to 1 | > 5 | < 30
20 | CC1(C#N)CCc2ccc(C(=O)NCC(=O)Nc3nc(-c4cccc(-c5ccncc5)c4)cs3)cc21 (stereo not drawn) [Compound 76, 3-cyano-3-methyl-N-(2-oxo-2-((4-(3-(pyridin-4-yl)phenyl)thiazol-2-yl)amino)ethyl)-2,3-dihydro-1H-indene-5-carboxamide] | >95 | < 0.1 | < 0.1 | > 80
21 | CC(C)(O)c1cccc(C(=O)NCC(=O)Nc2nc(-c3cccc(-c4ccncc4)c3)cs2)c1 [Compound 77] | >90 | 0.1 to 1 | 0.1 to 1 | > 80
22 | CC(O)(c1cccc(C(=O)NCC(=O)Nc2nc(-c3cccc(-c4ccncc4)c3)cs2)c1)C(F)(F)F (stereo not drawn) [Compound 78, N-(2-oxo-2-((4-(3-(pyridin-4-yl)phenyl)thiazol-2-yl)amino)ethyl)-3-(1,1,1-trifluoro-2-hydroxypropan-2-yl)benzamide] | >80 | 0.1 to 1 | 1 to 5 | > 40
23 | CCC(C)(O)c1cccc(C(=O)NCC(=O)Nc2nc(-c3cccc(-c4ccncc4)c3)cs2)c1 (stereo not drawn) [Compound 79, 3-(2-hydroxybutan-2-yl)-N-(2-oxo-2-((4-(3-(pyridin-4-yl)phenyl)thiazol-2-yl)amino)ethyl)benzamide] | >70 | 0.1 to 1 | 0.1 to 1 | > 50
24 | CC1(c2cccc(C(=O)NCC(=O)Nc3nc(-c4cccc(-c5ccncc5)c4)cs3)c2)CCNC1=O (stereo not drawn) [Compound 82, 3-(3-methyl-2-oxopyrrolidin-3-yl)-N-(2-oxo-2-((4-(3-(pyridin-4-yl)phenyl)thiazol-2-yl)amino)ethyl)benzamide] | >95 | 0.1 to 1 | 0.1 to 1 | > 90
